From paper PMC3742238, “Characterization of the Interaction between Eupatorin and Bovine Serum Albumin by Spectroscopic and Molecular Modeling Methods” (International Journal of Molecular Sciences, 2013)

Target: T1, bovine serum albumin (BSA) (Bos taurus, UniProt P02769)
T1 construct: gene ALB; BSA fraction V (Sigma), 583 amino acid residues
Assay: intrinsic fluorescence quenching titration (static; Kb at […] K, pH […], n = […]), supported by UV-vis, CD and FRET
Format: binding
Conditions: read-out: Kb (10^6 M^-1) (converted)

T1 sequence (P02769 25-607): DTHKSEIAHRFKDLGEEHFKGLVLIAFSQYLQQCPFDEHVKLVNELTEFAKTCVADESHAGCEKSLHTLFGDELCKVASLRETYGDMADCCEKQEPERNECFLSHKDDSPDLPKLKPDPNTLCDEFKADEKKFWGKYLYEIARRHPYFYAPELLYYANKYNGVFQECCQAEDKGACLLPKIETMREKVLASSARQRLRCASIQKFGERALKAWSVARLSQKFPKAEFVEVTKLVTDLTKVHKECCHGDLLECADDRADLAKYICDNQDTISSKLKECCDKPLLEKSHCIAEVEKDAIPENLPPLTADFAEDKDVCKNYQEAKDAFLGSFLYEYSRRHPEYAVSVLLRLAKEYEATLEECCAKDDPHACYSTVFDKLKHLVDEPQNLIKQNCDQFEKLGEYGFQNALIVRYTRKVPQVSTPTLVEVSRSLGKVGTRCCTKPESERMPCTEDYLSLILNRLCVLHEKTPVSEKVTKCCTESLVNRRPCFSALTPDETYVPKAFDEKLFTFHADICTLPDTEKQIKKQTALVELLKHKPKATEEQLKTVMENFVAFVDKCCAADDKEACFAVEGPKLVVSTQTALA

In the case of COc1ccc(-c2cc(=O)c3c(O)c(OC)c(OC)cc3o2)cc1O [eupatorin], the Kd was 813 nM.
